We go through six compounds from US20240181022A1, “AMURINS LYSINS, AND LYSIN-ANTIMICROBIAL PEPTIDE (AMP) CONSTRUCTS ACTIVE AGAINST GRAM-NEGATIVE BACTERIA” (priority 2021, published 2024).

≈ marks a conversion by molar mass, not a printed value. Where “and” joins values, the source holds several entries; their conditions need not be identical. Equal values may be shown once. Read-outs that look alike come from different tables or passages of the source. Where no end group is shown, it is not given here. [ ]: non-standard residue; d: D form.

One experiment has as its system K. pneumoniae. Briefly: Checkerboard synergy assay (FICI) against K. pneumoniae. The experiment is classed as cell-based, Klebsiella pneumoniae. Particulars: K. pneumoniae HM-44. As for the experimental part: (§1) Any known method to assess MIC may be used.
(§2) Checkerboards are constructed by first preparing columns of e.g., a 96-well polypropylene microtiter plate, wherein each well has the same amount of antibiotic diluted 2-fold along the horizontal axis. […] Bacteria are added to the drug combinations at concentrations of 1×10^5 […] in CAA, for example, with or without human serum or pulmonary surfactant. […] Summation fractional inhibitory concentrations (ΣFICs) are calculated for each drug and the minimum ΣFIC value (ΣFICmin) is used to determine the effect of the Chp peptide/antibiotic combination.
(§3) GN370 was further tested in combination with up to seven additional antibiotics (in addition to meropenem) against a variety of bacterial strains, including P. aeruginosa, A. baumannii, E. coli, E. cloacae, and K. pneumoniae. GN370 and the subject antibiotics were tested in a checkerboard assay format, and FICI values were determined, wherein ≤0.5 indicates synergy, >0.5-≤1 indicates additive; and >1 indicates indifferent.

Experiment [1] concerns P. aeruginosa. Briefly: Checkerboard synergy assay (FICI) with antibiotics against P. aeruginosa. Particulars: for FICI of the antibiotic with GN370: P. aeruginosa ATCC 27853, checkerboard; for Antibiotic MIC (single agent): P. aeruginosa strain AR-769; for Antibiotic FIC / Antibiotic MIC (combo): P. aeruginosa strain AR-769, in combination with GN370; for Antibiotic MIC (combo): in µg/mL. In kind it is cell-based, Pseudomonas aeruginosa. The procedure:
as §1, §2
The synergy of GN370 with meropenem was evaluated against 3 different strains of P. aeruginosa and three different strains of B. cenocepacia.
as §3

A further experiment concerns E. cloacae. Briefly: Checkerboard synergy assay (FICI) against E. cloacae. The experiment is classed as cell-based, Enterobacter cloacae. Particulars: E. cloacae ATCC 13047. The procedure: as §1, §2, §3
Another experiment deals with A. baumannii. Briefly: Checkerboard synergy assay (FICI) against A. baumannii. In kind it is cell-based, Acinetobacter baumannii. Particulars: A. baumannii ATCC BAA-747. As for the experimental part: as §1, §2, §3
A further experiment has as its system A. xylosoxidans. Kind of experiment: Serial passage resistance development study, A. xylosoxidans. In kind it is cell-based, Achromobacter xylosoxidans. The following applies: for change in MIC over serial passage: A. xylosoxidans; for MIC: Achromobacter xylosoxidans.
Experiment [2] has as its system A. baumannii (ATCC BAA-747). Briefly: microbe, parasite or virus in culture. In kind it is cell-based, Acinetobacter baumannii.
Another experiment concerns E. coli (ATCC 25922). Kind of experiment: microbe, parasite or virus in culture. The experiment is classed as cell-based, Escherichia coli.
Experiment [3] has as its system P. aeruginosa. Briefly: Serial passage resistance development study, P. aeruginosa. The following applies: Pseudomonas aeruginosa. In kind it is cell-based, Pseudomonas aeruginosa.
Another experiment concerns S. maltophilia. Briefly: Serial passage resistance development study, S. maltophilia. In kind it is cell-based, Stenotrophomonas maltophilia. The following applies: for MIC: Stenotrophomonas maltophilia.
In experiment [4] the test system is K. pneumoniae (1_1_5 HM-44). Kind of experiment: microbe, parasite or virus in culture. The experiment is classed as cell-based, Klebsiella pneumoniae.
Experiment [5] relates to P. aeruginosa. Particulars: […], before serial passage.
The next experiment concerns E. cloacae (ATCC 13047). Kind of experiment: microbe, parasite or virus in culture. In kind it is cell-based, Enterobacter cloacae.
The next experiment concerns E. coli. Briefly: Checkerboard synergy assay (FICI) against E. coli. The experiment is classed as cell-based, Escherichia coli. The following applies: E. coli ATCC 25922.
Description: In some embodiments, the Chp peptides disclosed herein or active fragments thereof reduce the minimum inhibitory concentration (MIC) of an antibiotic in the presence and/or absence of human serum, pulmonary surfactant, and/or sputum, including human sputum and human sputum from a cystic fibrosis patient. Any known method to assess MIC may be used. In some embodiments, a checkerboard assay is used to determine the effect of a Chp peptide or active fragment thereof on antibiotic concentration. The checkerboard assay is based on a modification of the CLSI method for MIC determination by broth microdilution (See Clinical and Laboratory Standards Institute (CLSI), CLSI. 2015. Methods for Dilution Antimicrobial Susceptibility Tests for Bacteria That Grow Aerobically; Approved Standard-10th Edition. Clinical and Laboratory Standards Institute, Wayne, PA, which is herein incorporated by reference in its entirety and Ceri et al. 1999. J. Clin. Microbiol. 37: 1771-1776, which is also herein incorporated by reference in its entirety).
Checkerboards are constructed by first preparing columns of e.g., a 96-well polypropylene microtiter plate, wherein each well has the same amount of antibiotic diluted 2-fold along the horizontal axis. […] The Chp peptide or active fragment thereof and antibiotic dilutions are then combined, so that each column has a constant amount of antibiotic and doubling dilutions of Chp peptide, while each row has a constant amount of Chp peptide and doubling dilutions of antibiotic. Each well thus has a unique combination of Chp peptide and antibiotic. Bacteria are added to the drug combinations at concentrations of 1×10^5 GFU/ml in CAA, for example, with or without human serum or pulmonary surfactant. […] Summation fractional inhibitory concentrations (ΣFICs) are calculated for each drug and the minimum ΣFIC value (ΣFICmin) is used to determine the effect of the Chp peptide/antibiotic combination.
as §3

The subject of another experiment is M. avium. Briefly: MIC against M. avium. The experiment is classed as cell-based, Mycobacterium avium. Particulars: M. avium (ATCC 700898); CAAT media.
In another experiment the test system is M. scrofulaceum. Kind of experiment: MIC against M. scrofulaceum. In kind it is cell-based, Mycobacterium scrofulaceum. The following applies: M. scrofulaceum (ATCC 19981); CAAT media.
Another experiment has as its system M. fortuitum. Briefly: MIC against M. fortuitum. The experiment is classed as cell-based, Mycobacterium fortuitum. The following applies: M. fortuitum (ATCC 6841); CAAT media.
Another experiment has as its system M. kansasii. Kind of experiment: MIC against M. kansasii. The experiment is classed as cell-based, Mycobacterium kansasii. Particulars: M. kansasi (ATCC 12478); CAAT media.
A further experiment deals with M. intracellulare. Kind of experiment: MIC against M. intracellulare. The experiment is classed as cell-based, Mycobacterium intracellulare. The following applies: M. intracellulare (ATCC 13950); CAAT media.
A further experiment concerns Mycobacterium species. In kind it is cell-based. Particulars: 30 amurin peptides, seven species, CAAT media.
The next experiment deals with M. tuberculosis. In kind it is cell-based, Mycobacterium tuberculosis.
The next experiment has as its system M. abscessus. Kind of experiment: MIC against MDR M. abscessus isolates. The experiment is classed as cell-based, Mycobacterium abscessus. Particulars: 7 days; for MIC: AST media (CAAT).
The next experiment relates to M. smegmatis. Kind of experiment: MIC against M. smegmatis. In kind it is cell-based, Mycobacterium smegmatis. Particulars: M. smegmatis (MC 155); CAAT media.

As for `C[C@H]1[C@H](NC(=O)/C(=N\OC(C)(C)C(=O)O)c2csc(N)n2)C(=O)N1S(=O)(=O)O` [Aztreonam], the “FICI of the antibiotic with GN370” value in the experiment with K. pneumoniae was determined as 0.375; in the experiment on P. aeruginosa [1], 0.375; with E. cloacae, 0.25; in the experiment on A. baumannii it was 0.313.

As to `C[C@H]1COc2c(N3CCN(C)CC3)c(F)cc3c(=O)c(C(=O)O)cn1c23` [levofloxacin, reference compound], the “change in MIC over serial passage” value with A. xylosoxidans (day 28) is on record as 128 fold; with A. xylosoxidans (day 28, another instance) it was 64 fold; in the experiment on S. maltophilia (S. maltophilia, day 28, triplicate) it was “up to 256 fold”. The MIC in the experiment on A. xylosoxidans (672 h, read-out: MIC after 28-day serial passage, A. xylosoxidans) was found to be 32 µg/mL (≈ 88.6 µM); with A. xylosoxidans (672 h, read-out: MIC after 28-day serial passage, A. xylosoxidans, another instance), 128 µg/mL (≈ 354 µM); in the experiment with A. xylosoxidans (read-out: MIC at start of serial passage, A. xylosoxidans), 0.25 µg/mL (≈ 0.692 µM); in the experiment on A. xylosoxidans (read-out: MIC at start of serial passage, A. xylosoxidans, another instance), 2 µg/mL (≈ 5.53 µM); in experiment [2] (Acinetobacter baumannii, ATCCBAA747), 0.125 µg/mL (≈ 0.346 µM); with E. coli (ATCC 25922) (Escherichia coli, ATCC25922) it was 0.0312 µg/mL (≈ 0.0865 µM). Besides, the MIC in the experiment with P. aeruginosa [3] turned out to be 4 µg/mL (≈ 11.1 µM); with S. maltophilia (672 h, read-out: MIC after 28-day serial passage) it was 64 µg/mL (≈ 177 µM); in the experiment on S. maltophilia (read-out: MIC at start of serial passage), 0.25 µg/mL (≈ 0.692 µM); in experiment [4] (Klebsiella pneumoniae) it was 0.0312 µg/mL (≈ 0.0865 µM); in the experiment on P. aeruginosa [5], 1 µg/mL (≈ 2.77 µM); in the experiment with E. cloacae (ATCC 13047) (Enterobacter cloacae, ATCC13047), 0.0625 µg/mL (≈ 0.173 µM). Moreover, the “change in MIC over 28-day serial passage” value was 128 fold in experiment [2] (A. baumannii (ATCC BAA-747)), 128 fold with E. coli (ATCC 25922) (E. coli (ATCC 25922)), “up to 512 fold” in experiment [4] (K. pneumoniae (1_1_5 HM-44)) and 256 fold in the experiment on E. cloacae (ATCC 13047) (E. cloacae (ATCC 13047)).

In the case of `NC[C@H]1O[C@H](O[C@H]2[C@H](O)[C@@H](O[C@H]3O[C@H](CO)[C@@H](O)[C@H](N)[C@H]3O)[C@H](N)C[C@@H]2N)[C@H](N)C[C@@H]1O` [tobramycin, reference compound], the “FICI of the antibiotic with GN370” value in the experiment on E. coli turned out to be 0.25; with K. pneumoniae, 0.375; with P. aeruginosa [1], 0.5; with E. cloacae it was 0.5; in the experiment with A. baumannii, 0.5. Moreover, the Antibiotic MIC (single agent) in the experiment on P. aeruginosa [1] was found to be 0.125 µg/mL. In addition, the “Antibiotic FIC” value in the experiment on P. aeruginosa [1] was 0.125. For the same compound, the “Antibiotic MIC (combo)” value with P. aeruginosa [1] is 0.016 and 0.015. In addition, the results for the MIC in the experiment with M. avium and against P. aeruginosa [5] were 0.125 Tg/mL and 0.002 µg/mL (≈ 0.00428 µM), respectively.

As for “AM16: Modified variant of Chp4, SEQ ID NO: 91 (MA[dR][dR]Y[dR]LS[dR][dR][dR]S[dR][dR]LFS[dR]TAL[dR]MH[dR][dR]N[dR]L[dR][dR]IM[dR]GGI[dR]F)”, the MIC against M. scrofulaceum worked out at 1 µg/mL; in the experiment on M. avium it was 1 Tg/mL; in the experiment on M. fortuitum it was 2 µg/mL; against M. kansasii, 1 µg/mL; against M. intracellulare, 1 µg/mL; against M. tuberculosis (M. tuberculosis (ATCC 35817), (ADC, T) media), 8 µg/mL. The MIC was 8 µg/mL against M. tuberculosis (M. tuberculosis strain TN8109_LB (MDR), 7H9 broth, 20 days); 8 µg/mL with M. tuberculosis (M. tuberculosis strain TN8562_M33 (susc), 7H9 broth, 20 days); 16 µg/mL against M. tuberculosis (M. tuberculosis strain TN10525_LL (MDR), 7H9 broth, 20 days); 8 µg/mL against M. tuberculosis (M. tuberculosis strain TN10571_KY (MDR), 7H9 broth, 20 days); 8 µg/mL against M. tuberculosis (M. tuberculosis strain TN12657_KQ15 (IS), 7H9 broth, 20 days); 8 µg/mL against M. tuberculosis (M. tuberculosis strain TN13923_HD17 (susc), 7H9 broth, 20 days). Also, the MIC in the experiment on M. tuberculosis (M. tuberculosis strain TN18349_W738 (susc), 7H9 broth, 20 days) stood at 4 µg/mL; against M. tuberculosis (M. tuberculosis strain TN34503_001 (susc), 7H9 broth, 20 days), 16 µg/mL; against M. abscessus (M. abscessus strain BK51402), 1 µg/mL; against M. abscessus (M. abscessus strain BK51403 (ATCC 19977)), 2 µg/mL; against M. abscessus (M. abscessus strain BK51408) it was 4 µg/mL; with M. abscessus (M. abscessus strain BK55096) it was 1 µg/mL. Moreover, the MIC against M. abscessus (M. abscessus strain BK55691) was determined as 1 µg/mL; against M. abscessus (M. abscessus strain BK58156) it was 2 µg/mL; against M. smegmatis, 0.25 µg/mL. Further, the “activity (MIC) against Mycobacterium species” value in the experiment with Mycobacterium species is “highest activity”. Moreover, the “activity (MIC) against M. abscessus” value in the experiment with M. abscessus (5 clinical MDR strains and 1 ATCC strain, CAAT) is given as “good activity”.

For the compound Colistin, the “FICI of the antibiotic with GN370” value was 0.375 in the experiment on E. coli; 0.187 with K. pneumoniae; 0.499 in the experiment on P. aeruginosa [1]; 0.25 with E. cloacae; 0.375 in the experiment on A. baumannii. Besides, in the experiment on P. aeruginosa [1], the Antibiotic MIC (single agent) stood at 0.063 µg/mL. Also, the “Antibiotic FIC” value in the experiment on P. aeruginosa [1] is reported as 0.125. Also, in the experiment with P. aeruginosa [1], the “Antibiotic MIC (combo)” value is listed as 0.008.

Regarding Gentamicin, the “FICI of the antibiotic with GN370” value in the experiment on E. coli is on record as 0.312; with K. pneumoniae, 0.375; in the experiment with E. cloacae, 0.25; in the experiment with A. baumannii, 0.563.
